# In US20260262643A1, “HERBICIDAL BENZOXAZINES” (FMC CORPORATION, priority 2022, published 2026):
# Assays:
# barnyardgrass [1] = experiment: Test C preemergence; type: in vivo, Echinochloa crusgalli
# How it was run: (§1)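 Greenhouse herbicide screen, 10-day duration. Test chemicals in solvent/surfactant blend were sprayed onto soil at sowing (pre) or onto 2–10 cm seedlings at one to two leaves (post); injury scored visually against controls, 0 no effect to 100 complete control.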
# blackgrass [2] = experiment: Test C preemergence; type: in vivo, Alopecurus myosuroides
# How it was run: as §1
# corn [3] = experiment: Test C preemergence; type: in vivo, Zea mays
# How it was run: as §1
# foxtail, giant [4] = experiment: Test C preemergence; type: in vivo, Setaria faberi
# From the text: (§2) Seeds of plant species selected from barnyardgrass (Echinochloa crusgalli), blackgrass (Alopecurus myosuroides), corn (Zea mays), foxtail, giant (giant foxtail, Setaria faberi), green foxtail (Setaria viridis), goosegrass (Eleusine indica), kochia (Bassia scoparia), oat, wild (wild oat, Avena fatua), pigweed, palmer (palmer amaranth, palmer pigweed, Amaranthus palmeri), Pigweed, Redroot (redroot pigweed, Amaranthus retroflexus), ragweed (common ragweed, Ambrosia artemisiifolia), ryegrass, Italian ([…] ryegrass, Lolium multiflorum), soybean (Glycine max), and wheat (Triticum aestivum) were planted into a blend of loam soil and sand and treated preemergence with a directed soil spray using test chemicals formulated in a non-phytotoxic solvent mixture which included a surfactant. At the same time, plants selected from these crops and weed species and also galium (catchweed bedstraw, Galium aparine) and horseweed (Erigeron canadensis) were planted in pots containing the same blend of loam soil and sand and treated with postemergence applications of test chemicals formulated in the same manner. Plants ranged in height from 2 to 10 cm and were in the one- to two-leaf stage for the postemergence treatment. Treated plants and untreated controls were maintained in a greenhouse for 10 days, after which time all treated plants were compared to untreated controls and visually evaluated for injury. Plant response ratings, summarized in Table C, are based on a 0 to 100 scale where 0 is no effect and 100 is complete control. A dash (-) response means no test result.
# kochia [5] = experiment: Test C preemergence; type: in vivo, Bassia scoparia
# How it was run: as §1
# oat, wild [6] = experiment: Test C preemergence; type: in vivo, Avena fatua
# How it was run: as §1
# pigweed, palmer [7] = experiment: Test C preemergence; type: in vivo, Amaranthus palmeri
# How it was run: as §1
# ragweed [8] = experiment: Test C preemergence; type: in vivo, Ambrosia artemisiifolia
# How it was run: as §1
# ryegrass, Italian [9] = experiment: Test C preemergence; type: in vivo, Lolium multiflorum
# How it was run: as §1
# soybean [10] = experiment: Test C preemergence; type: in vivo, Glycine max
# How it was run: as §1
# wheat [11] = experiment: Test C preemergence; type: in vivo, Triticum aestivum
# How it was run: as §1
# barnyardgrass [12] = experiment: Test C postemergence; type: in vivo, Echinochloa crusgalli; conditions: 10 days, 0 to 100 scale (0 no effect, 100 complete control)
# How it was run: as §1
# blackgrass [13] = experiment: Test C postemergence; type: in vivo, Alopecurus myosuroides; conditions: 10 days, 0 to 100 scale (0 no effect, 100 complete control)
# How it was run: as §1
# corn [14] = experiment: Test C postemergence; type: in vivo, Zea mays; conditions: 10 days, 0 to 100 scale (0 no effect, 100 complete control)
# How it was run: as §1
# foxtail, giant [15] = experiment: Test C postemergence; type: in vivo, Setaria faberi; conditions: 10 days, 0 to 100 scale (0 no effect, 100 complete control)
# From the text: as §2
# kochia [16] = experiment: Test C postemergence; type: in vivo, Bassia scoparia; conditions: 10 days, 0 to 100 scale (0 no effect, 100 complete control)
# How it was run: as §1
# oat, wild [17] = experiment: Test C postemergence; type: in vivo, Avena fatua; conditions: 10 days, 0 to 100 scale (0 no effect, 100 complete control)
# How it was run: as §1
# pigweed, palmer [18] = experiment: Test C postemergence; type: in vivo, Amaranthus palmeri; conditions: 10 days, 0 to 100 scale (0 no effect, 100 complete control)
# How it was run: as §1
# ragweed [19] = experiment: Test C postemergence; type: in vivo, Ambrosia artemisiifolia; conditions: 10 days, 0 to 100 scale (0 no effect, 100 complete control)
# How it was run: as §1
# ryegrass, Italian [20] = experiment: Test C postemergence; type: in vivo, Lolium multiflorum; conditions: 10 days, 0 to 100 scale (0 no effect, 100 complete control)
# How it was run: as §1
# soybean [21] = experiment: Test C postemergence; type: in vivo, Glycine max; conditions: 10 days, 0 to 100 scale (0 no effect, 100 complete control)
# How it was run: as §1
# wheat [22] = experiment: Test C postemergence; type: in vivo, Triticum aestivum; conditions: 10 days, 0 to 100 scale (0 no effect, 100 complete control)
# How it was run: as §1
# galium = experiment: Test C postemergence; type: in vivo, Galium aparine; conditions: 10 days, 0 to 100 scale (0 no effect, 100 complete control)
# How it was run: as §1
# horseweed = experiment: Test C postemergence; type: in vivo, Erigeron canadensis; conditions: 10 days, 0 to 100 scale (0 no effect, 100 complete control)
# How it was run: as §1
# barnyardgrass [23] = experiment: Test D flooded paddy test; type: in vivo, Echinochloa crus-galli; conditions: 250 g ai/ha, applied to paddy water, visual rating after 13 to 14 days, scale 0 to 100 (0 no effect, 100 complete control)
# How it was run: (§3)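 Seedlings reached the 2-leaf stage, then pots were flooded to 3 cm over the soil surface. Compound was applied into the water, depth was maintained, and plants stayed in the greenhouse 13 to 14 days before visual scoring (0–100) relative to controls.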
# ducksalad = experiment: Test D flooded paddy test; type: in vivo, Heteranthera limosa; conditions: 250 g ai/ha, applied to paddy water, visual rating after 13 to 14 days, scale 0 to 100 (0 no effect, 100 complete control)
# How it was run: as §3
# rice = experiment: Test D flooded paddy test; type: in vivo, Oryza sativa; conditions: 250 g ai/ha, applied to paddy water, visual rating after 13 to 14 days, scale 0 to 100 (0 no effect, 100 complete control)
# How it was run: as §3
# sedge, umbrella = experiment: Test D flooded paddy test; type: in vivo, Cyperus difformis; conditions: 250 g ai/ha, applied to paddy water, visual rating after 13 to 14 days, scale 0 to 100 (0 no effect, 100 complete control)
# How it was run: as §3
# [24] = 500 g ai/ha, preemergence, 0 to 100 scale (0 no effect, 100 complete control)
# [25] = Preemergence, 125 g ai/ha, 0 to 100 scale, 0 no effect, 100 complete control
smiles,measurement,setting,value
"CC(C)c1ncn(-c2cc(C(=O)N3CC(C(F)(F)F)Oc4c(Cl)cccc43)ccn2)n1 (single isomer, unassigned) [Compound 330]",Barnyardgrass plant response rating,barnyardgrass [1]; [24],100
same,"Plant response rating, Barnyardgrass",barnyardgrass [1]; [25],70
same,Blackgrass plant response rating,blackgrass [2]; [24],90
same,"Plant response rating, Blackgrass",blackgrass [2]; [25],70
same,Corn plant response rating,corn [3]; [24],60
same,"Plant response rating, Corn",corn [3]; [25],10
same,"Foxtail, Giant plant response rating","foxtail, giant [4]; [24]",100
same,"Plant response rating, Foxtail, Giant","foxtail, giant [4]; [25]",100
same,Kochia plant response rating,kochia [5]; [24],90
same,"Plant response rating, Kochia",kochia [5]; [25],30
same,"Oat, Wild plant response rating","oat, wild [6]; [24]",60
same,"Plant response rating, Oat, Wild","oat, wild [6]; [25]",30
same,"Pigweed, Palmer plant response rating","pigweed, palmer [7]; [24]",100
same,"Plant response rating, Pigweed, Palmer","pigweed, palmer [7]; [25]",100
same,Ragweed plant response rating,ragweed [8]; [24],50
same,"Plant response rating, Ragweed",ragweed [8]; [25],0
same,"Ryegrass, Italian plant response rating","ryegrass, Italian [9]; [24]",100
same,"Plant response rating, Ryegrass, Italian","ryegrass, Italian [9]; [25]",100
same,Soybean plant response rating,soybean [10]; [24],80
same,"Plant response rating, Soybean",soybean [10]; [25],40
same,Wheat plant response rating,wheat [11]; [24],30
same,"Plant response rating, Wheat",wheat [11]; [25],20
same,"Plant response rating, Barnyardgrass","barnyardgrass [12]; 500 g ai/ha, postemergence",70
same,"Plant response rating, Barnyardgrass","barnyardgrass [12]; Postemergence, 125 g ai/ha",50
same,"Plant response rating, Blackgrass","blackgrass [13]; 500 g ai/ha, postemergence",90
same,"Plant response rating, Blackgrass","blackgrass [13]; Postemergence, 125 g ai/ha",40
same,"Plant response rating, Corn","corn [14]; 500 g ai/ha, postemergence",90
same,"Plant response rating, Corn","corn [14]; Postemergence, 125 g ai/ha",70
same,"Plant response rating, Foxtail, Giant","foxtail, giant [15]; 500 g ai/ha, postemergence",90
same,"Plant response rating, Foxtail, Giant","foxtail, giant [15]; Postemergence, 125 g ai/ha",50
same,"Plant response rating, Kochia","kochia [16]; 500 g ai/ha, postemergence",100
same,"Plant response rating, Kochia","kochia [16]; Postemergence, 125 g ai/ha",80
same,"Plant response rating, Oat, Wild","oat, wild [17]; 500 g ai/ha, postemergence",70
same,"Plant response rating, Oat, Wild","oat, wild [17]; Postemergence, 125 g ai/ha",30
same,"Plant response rating, Pigweed, Palmer","pigweed, palmer [18]; 500 g ai/ha, postemergence",100
same,"Plant response rating, Pigweed, Palmer","pigweed, palmer [18]; Postemergence, 125 g ai/ha",70
same,"Plant response rating, Ragweed","ragweed [19]; 500 g ai/ha, postemergence",40
same,"Plant response rating, Ragweed","ragweed [19]; Postemergence, 125 g ai/ha",30
same,"Plant response rating, Ryegrass, Italian","ryegrass, Italian [20]; 500 g ai/ha, postemergence",90
same,"Plant response rating, Ryegrass, Italian","ryegrass, Italian [20]; Postemergence, 125 g ai/ha",40
same,"Plant response rating, Soybean","soybean [21]; 500 g ai/ha, postemergence",100
same,"Plant response rating, Soybean","soybean [21]; Postemergence, 125 g ai/ha",100
same,"Plant response rating, Wheat","wheat [22]; 500 g ai/ha, postemergence",30
same,"Plant response rating, Wheat","wheat [22]; Postemergence, 125 g ai/ha",20
same,"Plant response rating, Galium","galium; 500 g ai/ha, postemergence",100
same,"Plant response rating, Galium","galium; Postemergence, 125 g ai/ha",100
same,"Plant response rating, Horseweed","horseweed; 500 g ai/ha, postemergence",20
same,"Plant response rating, Horseweed","horseweed; Postemergence, 125 g ai/ha",0
same,"Plant response rating, Barnyardgrass (Flood)",barnyardgrass [23],0
same,"Plant response rating, Ducksalad (Flood)",ducksalad,0
same,"Plant response rating, Rice (Flood)",rice,0
same,"Plant response rating, Sedge, Umbrella (Flood)","sedge, umbrella",0
